Source: ChEMBL document CHEMBL5154842, “Unique Carbazole-Oxadiazole Derivatives as New Potential Antibiotics for Combating Gram-Positive and -Negative Bacteria” (J Med Chem, 2022)
Converted amounts (≈) assume the structure as drawn. The source made the active and inactive calls. No cut-off for these calls is given here.

Legend:
Pseudomonas aeruginosa [1] = assay: Antibacterial activity against Pseudomonas aeruginosa ATCC 27853 assessed as inhibition of bacterial growth incubated for 24 hrs by CLSI protocol based two fold serial dilution method; assay type: functional
Pseudomonas aeruginosa [2] = assay: Antibacterial activity against Pseudomonas aeruginosa assessed as inhibition of bacterial growth incubated for 24 hrs by CLSI protocol based two fold serial dilution method; assay type: functional
Enterococcus faecalis = assay: Antibacterial activity against Enterococcus faecalis assessed as inhibition of bacterial growth incubated for 24 hrs by CLSI protocol based two fold serial dilution method; assay type: functional
Acinetobacter baumannii = assay: Antibacterial activity against Acinetobacter baumannii assessed as inhibition of bacterial growth incubated for 24 hrs by CLSI protocol based two fold serial dilution method; assay type: functional
Escherichia coli [3] = assay: Antibacterial activity against Escherichia coli assessed as inhibition of bacterial growth incubated for 24 hrs by CLSI protocol based two fold serial dilution method; assay type: functional
Staphylococcus aureus [4] = assay: Antibacterial activity against methicillin-resistant Staphylococcus aureus N315 assessed as inhibition of bacterial growth incubated for 24 hrs by CLSI protocol based two fold serial dilution method; assay type: functional
Klebsiella pneumoniae = assay: Antibacterial activity against Klebsiella pneumonia assessed as inhibition of bacterial growth incubated for 24 hrs by CLSI protocol based two fold serial dilution method; assay type: functional
Staphylococcus aureus [5] = assay: Antibacterial activity against Staphylococcus aureus assessed as inhibition of bacterial growth incubated for 24 hrs by CLSI protocol based two fold serial dilution method; assay type: functional
Staphylococcus aureus [6] = assay: Antibacterial activity against Staphylococcus aureus 25923 assessed as inhibition of bacterial growth incubated for 24 hrs by CLSI protocol based two fold serial dilution method; assay type: functional
Escherichia coli [7] = assay: Antibacterial activity against Escherichia coli 25922 assessed as inhibition of bacterial growth incubated for 24 hrs by CLSI protocol based two fold serial dilution method; assay type: functional
Staphylococcus aureus [8] = assay: Antibacterial activity against Staphylococcus aureus 29213 assessed as inhibition of bacterial growth incubated for 24 hrs by CLSI protocol based two fold serial dilution method; assay type: functional
[9] = Hemolytic activity in human RBC assessed as hemolysis at 1 to 32 ug/ml measured after 60 mins by microplate reader assay relative to control; assay type: toxicity, cell-based, Erythrocyte; details: red blood cells (erythrocytes), at 1 to 32 µg/mL, dose 1-32 µg/ml, read-out: Activity
Staphylococcus aureus [10] = assay: Antibacterial activity against methicillin-resistant Staphylococcus aureus N315 assessed as inhibition of bacterial growth at 0.5 to 16 ug/ml measured after 24 hrs by microplate reader assay; assay type: functional, organism-based; details: dose 0.5-16 µg/ml
Staphylococcus aureus [11] = assay: Antibacterial activity against methicillin-resistant Staphylococcus aureus N315 assessed as inhibition of bacterial growth at 0.25 to 64 ug/ml incubated for 24 hrs by Alamar blue assay; assay type: functional, organism-based; details: dose 0.25-64 µg/ml
Staphylococcus aureus [12] = assay: Antibacterial activity against methicillin-resistant Staphylococcus aureus N315 assessed as change in susceptibility at sub-MIC treated over 9 serial passages measured after 9 days by resistance development assay; assay type: functional, organism-based; details: time 9.0 day

Row | SMILES | MIC (Pseudomonas aeruginosa [1]) [µg/mL] | MIC (Pseudomonas aeruginosa [2]) [µg/mL] | MIC (Enterococcus faecalis) [µg/mL] | MIC (Acinetobacter baumannii) [µg/mL] | MIC (Escherichia coli [3]) [µg/mL] | MIC (Staphylococcus aureus [4]) [µg/mL] | MIC (Klebsiella pneumoniae) [µg/mL] | MIC (Staphylococcus aureus [5]) [µg/mL] | MIC (Staphylococcus aureus [6]) [µg/mL] | MIC (Escherichia coli [7]) [µg/mL] | MIC (Staphylococcus aureus [8]) [µg/mL] | hemolysis at 1 h [9] [%] | Activity (Staphylococcus aureus [10]) | Activity (Staphylococcus aureus [11]) | Activity (Staphylococcus aureus [12])
1 | C=CCSc1nnc2c3ccccc3n(Cc3nnc(S)o3)c2n1 | 256 (≈ 718 µM) | 256 (≈ 718 µM) | 256 (≈ 718 µM) | 256 (≈ 718 µM) | 256 (≈ 718 µM) | 256 (≈ 718 µM) | 256 (≈ 718 µM) | 256 (≈ 718 µM) | 256 (≈ 718 µM) | 256 (≈ 718 µM) | 256 (≈ 718 µM) |  |  |  | 
2 | CCN(CC)CCOc1cccc2c1c1ccccc1n2Cc1nnc(S)o1 | 2 (≈ 5.04 µM) | 256 (≈ 646 µM) | 4 (≈ 10.1 µM) | 256 (≈ 646 µM) | 256 (≈ 646 µM) | 128 (≈ 323 µM) | 256 (≈ 646 µM) | 256 (≈ 646 µM) | 256 (≈ 646 µM) | 256 (≈ 646 µM) | 256 (≈ 646 µM) |  |  |  | 
3 | CCCOc1cccc2c1c1ccccc1n2Cc1nnc(S)o1 | 4 (≈ 11.8 µM) | 256 (≈ 754 µM) | 2 (≈ 5.89 µM) | 0.25 (≈ 0.737 µM) | 4 (≈ 11.8 µM) | 2 (≈ 5.89 µM) | 4 (≈ 11.8 µM) | 128 (≈ 377 µM) | 2 (≈ 5.89 µM) | 1 (≈ 2.95 µM) | 4 (≈ 11.8 µM) |  |  |  | 
4 | Clc1cnc(COc2cccc3[nH]c4ccccc4c23)s1 | 256 (≈ 813 µM) | 256 (≈ 813 µM) | 256 (≈ 813 µM) | 256 (≈ 813 µM) | 256 (≈ 813 µM) | 256 (≈ 813 µM) | 256 (≈ 813 µM) | 256 (≈ 813 µM) | 256 (≈ 813 µM) | 256 (≈ 813 µM) | 256 (≈ 813 µM) |  |  |  | 
5 | CCOc1cccc2c1c1ccccc1n2Cc1nnc(S)o1 | 256 (≈ 787 µM) | 256 (≈ 787 µM) | 1 (≈ 3.07 µM) | 0.25 (≈ 0.768 µM) | 0.5 (≈ 1.54 µM) | 1 (≈ 3.07 µM) | 32 (≈ 98.3 µM) | 64 (≈ 197 µM) | 16 (≈ 49.2 µM) | 0.25 (≈ 0.768 µM) | 0.5 (≈ 1.54 µM) | < 3 | Active | Active | 
6 | Fc1ccc(COc2cccc3c2c2ccccc2n3Cc2nnc(S)o2)cc1 | 8 (≈ 19.7 µM) | 256 (≈ 631 µM) | 2 (≈ 4.93 µM) | 4 (≈ 9.87 µM) | 0.25 (≈ 0.617 µM) | 1 (≈ 2.47 µM) | 4 (≈ 9.87 µM) | 256 (≈ 631 µM) | 2 (≈ 4.93 µM) | 2 (≈ 4.93 µM) | 8 (≈ 19.7 µM) |  |  |  | 
7 | CCCCCOc1cccc2c1c1ccccc1n2Cc1nnc(S)o1 | 256 (≈ 697 µM) | 256 (≈ 697 µM) | 256 (≈ 697 µM) | 128 (≈ 348 µM) | 256 (≈ 697 µM) | 256 (≈ 697 µM) | 256 (≈ 697 µM) | 256 (≈ 697 µM) | 256 (≈ 697 µM) | 256 (≈ 697 µM) | 256 (≈ 697 µM) |  |  |  | 
8 | CCSc1nnc2c3ccccc3n(Cc3nnc(S)o3)c2n1 | 256 (≈ 743 µM) | 256 (≈ 743 µM) | 256 (≈ 743 µM) | 256 (≈ 743 µM) | 256 (≈ 743 µM) | 256 (≈ 743 µM) | 256 (≈ 743 µM) | 256 (≈ 743 µM) | 256 (≈ 743 µM) | 256 (≈ 743 µM) | 256 (≈ 743 µM) |  |  |  | 
9 | CC(C)=CCOc1cccc2c1c1ccccc1n2Cc1nnc(S)o1 | 2 (≈ 5.47 µM) | 256 (≈ 700 µM) | 4 (≈ 10.9 µM) | 8 (≈ 21.9 µM) | 8 (≈ 21.9 µM) | 1 (≈ 2.74 µM) | 4 (≈ 10.9 µM) | 256 (≈ 700 µM) | 4 (≈ 10.9 µM) | 4 (≈ 10.9 µM) | 4 (≈ 10.9 µM) |  |  |  | 
10 | Sc1nnc(Cn2c3ccccc3c3c(OCC4CCCC4)cccc32)o1 | 4 (≈ 10.5 µM) | 256 (≈ 675 µM) | 1 (≈ 2.64 µM) | 2 (≈ 5.27 µM) | 4 (≈ 10.5 µM) | 2 (≈ 5.27 µM) | 4 (≈ 10.5 µM) | 256 (≈ 675 µM) | 4 (≈ 10.5 µM) | 1 (≈ 2.64 µM) | 0.25 (≈ 0.659 µM) | < 3 | Active | Active | Active
11 | Sc1nnc(Cn2c3ccccc3c3c(OCCN4CCOCC4)cccc32)o1 | 64 (≈ 156 µM) | 256 (≈ 624 µM) | 64 (≈ 156 µM) | 128 (≈ 312 µM) | 64 (≈ 156 µM) | 128 (≈ 312 µM) | 64 (≈ 156 µM) | 128 (≈ 312 µM) | 128 (≈ 312 µM) | 128 (≈ 312 µM) | 32 (≈ 78 µM) |  |  |  | 
12 | CCCCOc1cccc2c1c1ccccc1n2Cc1nnc(S)o1 | 256 (≈ 724 µM) | 256 (≈ 724 µM) | 4 (≈ 11.3 µM) | 0.25 (≈ 0.707 µM) | 256 (≈ 724 µM) | 256 (≈ 724 µM) | 256 (≈ 724 µM) | 256 (≈ 724 µM) | 256 (≈ 724 µM) | 256 (≈ 724 µM) | 256 (≈ 724 µM) |  |  |  | 
